In patent publication US6472348B1, “Pyridone derivatives and herbicides” (Kumiai Chemical Industry Co., Ltd., priority 1996, dated 2002):

Experiments:
Type in all cases: in vivo
soybean (Gl) = assay: Test Example 6: crop plant selectivity by upland field soil treatment (soybean), phytotoxicity; set-up: scale not given here; conditions: dose 6.3 g ai/10a, 21st day after application
Experimental: (§1) (Test on Crop Plant Selectivity by Upland Field Soil Treatment)
(§2) In a plastic pot (surface area: 600 cm^2) filled with sand, soybean (Gl), Diaitaria ciliaris (Di), green foxtail (Se), Johnsongrass (So), pale smartweed (Po), slender amaranth (Am), common lambsquarters (Ch) and China jute (Ab) were sown and covered with soil. […] The plants were then cultured in a green house, and the evaluation of the herbicidal effects and phytotoxicity was conducted on the 21st day after the application in accordance with the standards as identified in Table 47. Symbol—represents “not tested”.

rice flatsedge (Ci) [1] = assay: Test Example 3: herbicidal effects by upland field foliage treatment; set-up: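 grade of growth control; 5 = at least 90%; 4 = 70 to 90%; 3 = 50 to 70%; 2 = 30 to 50%; 1 = 10 to 30%; 0 = under 10%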; conditions: 100 g of the active ingredient per 10 ares, evaluated on the 14th day after treatment
Summary of the method: (§3)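 Seeds → sand pot (120 cm^2) → soil cover → greenhouse 2 wk → foliar treatment → greenhouse → herbicidal score at 14 d post-treatment against graded standards.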

barnyardgrass (Ec) [2] = assay: as above; set-up: scale not given here; conditions: 100 g of the active ingredient per 10 ares, evaluated on the 14th day after treatment
Summary of the method: as §3

[3] = tested on: common lambsquarters (Ch); assay: as above; set-up: scale not given here; conditions: 100 g of the active ingredient per 10 ares, evaluated on the 14th day after treatment
Summary of the method: as §3

pale smartweed (Po) [4] = assay: as above; set-up: scale not given here; conditions: 100 g of the active ingredient per 10 ares, evaluated on the 14th day after treatment
Summary of the method: as §3

Diaitaria ciliaris (Di) = assay: as above; set-up: scale not given here; conditions: 100 g of the active ingredient per 10 ares, evaluated on the 14th day after treatment
Summary of the method: as §3

slender amaranth (Am) [5] = assay: as above; set-up: scale not given here; conditions: 100 g of the active ingredient per 10 ares, evaluated on the 14th day after treatment
Summary of the method: as §3

China jute (Ab) [6] = assay: Test Example 4: crop plant selectivity by upland field soil treatment (cotton), herbicidal effects; set-up: scale not given here; conditions: dose 6.3 g ai/10 a, evaluated 21st day after application
Experimental: as §1
(§4) In a plastic pot (surface area: 600 cm^2) filled with sand, cotton (Go), Diaitaria ciliaris (Di), green foxtail (Se), pale smartweed (Po), slender amaranth (Am), common lambsquarters (Ch) and China jute (Ab) were sown and covered with soil. […] The plants were then cultured in a green house, and the evaluation of the herbicidal effects and phytotoxicity was conducted on the 21st day after the application in accordance with the standards as identified in Table 47. Symbol—represents “not tested”.

[7] = tested on: common lambsquarters (Ch); assay: as above; set-up: scale not given here; conditions: dose 6.3 g ai/10 a, evaluated 21st day after application
Experimental: as §1, §4

pale smartweed (Po) [8] = assay: as above; set-up: scale not given here; conditions: dose 6.3 g ai/10 a, evaluated 21st day after application
Experimental: as §1, §4

green foxtail (Se) [9] = assay: as above; set-up: scale not given here; conditions: dose 6.3 g ai/10 a, evaluated 21st day after application
Experimental: as §1, §4

slender amaranth (Am) [10] = assay: as above; set-up: scale not given here; conditions: dose 6.3 g ai/10 a, evaluated 21st day after application
Experimental: as §1, §4

cotton (Go) = assay: Test Example 4: crop plant selectivity by upland field soil treatment (cotton), phytotoxicity; set-up: scale not given here; conditions: dose 6.3 g ai/10 a, evaluated 21st day after application
Experimental: as §1, §4

monochoria (Mo) = assay: Test Example 1: herbicidal effects by paddy field soil treatment; conditions: 100 g of the active ingredient per 10 ares, 21st day after the application, index 0-5 of Table 47;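 also: grade of growth control; 5 = at least 90%; 4 = 70 to 90%; 3 = 50 to 70%; 2 = 30 to 50%; 1 = 10 to 30%; 0 = under 10%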
Summary of the method: (§5)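 Flooded paddy-soil pots (3 cm water) sown after puddling/leveling; treatment 100 g a.i./10 ares; greenhouse culture; herbicidal effect rated visually on a scoring scale at 21 d post-application.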

barnyardgrass (Ec) [11] = assay: as above; conditions: 100 g of the active ingredient per 10 ares, 21st day after the application, index 0-5 of Table 47
Summary of the method: as §5

bulrush (Sc) = assay: as above; conditions: 100 g of the active ingredient per 10 ares, 21st day after the application, index 0-5 of Table 47;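 also: grade of growth control; 5 = at least 90%; 4 = 70 to 90%; 3 = 50 to 70%; 2 = 30 to 50%; 1 = 10 to 30%; 0 = under 10%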
Summary of the method: as §5

China jute (Ab) [12] = assay: Test Example 5: crop plant selectivity by upland field soil treatment (wheat), herbicidal effects; set-up: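 grade of growth control; 5 = at least 90%; 4 = 70 to 90%; 3 = 50 to 70%; 2 = 30 to 50%; 1 = 10 to 30%; 0 = under 10%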; conditions: dose 6.3 g ai/10a, 21st day after application
Experimental: as §1
(§6) In a plastic pot (surface area: 600 cm^2) filled with sand, wheat (Tr), Diaitaria ciliaris (Di), green foxtail (Se), pale smartweed (Po), slender amaranth (Am), common lambsquarters (Ch) and China jute (Ab) were sown and covered with soil. […] The plants were then cultured in a green house, and the evaluation of the herbicidal effects and phytotoxicity was conducted on the 21st day after the application in accordance with the standards as identified in Table 47. Symbol—represents “not tested”.

[13] = tested on: common lambsquarters (Ch); assay: as above; set-up: scale not given here; conditions: 21st day after application
Experimental: as §1, §6

pale smartweed (Po) [14] = assay: as above; set-up: scale not given here; conditions: 21st day after application
Experimental: as §1, §6

green foxtail (Se) [15] = assay: as above; set-up: scale not given here; conditions: 21st day after application
Experimental: as §1, §6

slender amaranth (Am) [16] = assay: as above; set-up: scale not given here; conditions: 21st day after application
Experimental: as §1, §6

Digitaria ciliaris (Di) = assay: Test Example 2: herbicidal effects by upland field soil treatment; conditions: 100 g of the active ingredient per 10 ares, 21st day after the application, index 0-5 of Table 47;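 also: grade of growth control; 5 = at least 90%; 4 = 70 to 90%; 3 = 50 to 70%; 2 = 30 to 50%; 1 = 10 to 30%; 0 = under 10%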
Text: (§7) (Test on Herbicidal Effects by Upland Field Soil Treatment)

rice flatsedge (Ci) [17] = assay: as above; conditions: 100 g of the active ingredient per 10 ares, 21st day after the application, index 0-5 of Table 47
Text: as §7

barnyardgrass (Ec) [18] = assay: as above; conditions: 100 g of the active ingredient per 10 ares, 21st day after the application, index 0-5 of Table 47
Text: as §7

[19] = tested on: common lambsquarters (Ch); assay: as above; conditions: 100 g of the active ingredient per 10 ares, 21st day after the application, index 0-5 of Table 47
Text: as §7

pale smartweed (Po) [20] = assay: as above; conditions: 100 g of the active ingredient per 10 ares, 21st day after the application, index 0-5 of Table 47
Text: as §7

slender amaranth (Am) [21] = assay: as above; conditions: 100 g of the active ingredient per 10 ares, 21st day after the application, index 0-5 of Table 47
Text: as §7

corn (Ze) = assay: Test Example 7: crop plant selectivity by upland field soil treatment (corn), phytotoxicity; set-up: scale not given here; conditions: dose 6.3 g ai/10a, 21st day after application
Experimental: as §1
(§8) In a plastic pot (surface area: 600 cm^2) filled with sand, corn (Ze), green foxtail (Se), pale smartweed (Po), slender amaranth (Am), common lambsquarters (Ch) and China jute (Ab) were sown and covered with soil. […] The plants were then cultured in a green house, and the evaluation of the herbicidal effects and phytotoxicity was conducted on the 21st day after the application in accordance with the standards as identified in Table 47.

China jute (Ab) [22] = assay: Test Example 6: crop plant selectivity by upland field soil treatment (soybean), herbicidal effects; set-up: scale not given here; conditions: dose 6.3 g ai/10a, 21st day after application
Experimental: as §1, §2

[23] = tested on: common lambsquarters (Ch); assay: as above; set-up: scale not given here; conditions: dose 6.3 g ai/10a, 21st day after application
Experimental: as §1, §2

pale smartweed (Po) [24] = assay: as above; set-up: scale not given here; conditions: dose 6.3 g ai/10a, 21st day after application
Experimental: as §1, §2

green foxtail (Se) [25] = assay: as above; set-up: scale not given here; conditions: dose 6.3 g ai/10a, 21st day after application
Experimental: as §1, §2

slender amaranth (Am) [26] = assay: as above; set-up: scale not given here; conditions: dose 6.3 g ai/10a, 21st day after application
Experimental: as §1, §2

wheat (Tr) = assay: Test Example 5: crop plant selectivity by upland field soil treatment (wheat), phytotoxicity; set-up: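 grade of crop injury; 5 = at least 90%; 4 = 70 to 90%; 3 = 50 to 70%; 2 = 30 to 50%; 1 = 10 to 30%; 0 = under 10%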; conditions: 21st day after application
Experimental: as §1, §6

China jute (Ab) [27] = assay: Test Example 7: crop plant selectivity by upland field soil treatment (corn), herbicidal effects; set-up: scale not given here; conditions: dose 6.3 g ai/10a, 21st day after application
Experimental: as §1, §8

[28] = tested on: common lambsquarters (Ch); assay: as above; set-up: scale not given here; conditions: dose 6.3 g ai/10a, 21st day after application
Experimental: as §1, §8

pale smartweed (Po) [29] = assay: as above; set-up: scale not given here; conditions: dose 6.3 g ai/10a, 21st day after application
Experimental: as §1, §8

green foxtail (Se) [30] = assay: as above; set-up: scale not given here; conditions: dose 6.3 g ai/10a, 21st day after application
Experimental: as §1, §8

slender amaranth (Am) [31] = assay: as above; set-up: scale not given here; conditions: dose 6.3 g ai/10a, 21st day after application
Experimental: as §1, §8

| SMILES | Phytotoxicity Gl (soybean (Gl)) | Herbicidal effects Ci (rice flatsedge (Ci) [1]) | Herbicidal effects Ec (barnyardgrass (Ec) [2]) | Herbicidal effects Ch [3] | Herbicidal effects Po (pale smartweed (Po) [4]) | Herbicidal effects Di (Diaitaria ciliaris (Di)) | Herbicidal effects Am (slender amaranth (Am) [5]) | Herbicidal effects Ab (China jute (Ab) [6]) | Herbicidal effects Ch [7] | Herbicidal effects Po (pale smartweed (Po) [8]) | Herbicidal effects Se (green foxtail (Se) [9]) | Herbicidal effects Am (slender amaranth (Am) [10]) | Phytotoxicity Go (cotton (Go)) | Herbicidal effects Mo (monochoria (Mo)) | Herbicidal effects Ec (barnyardgrass (Ec) [11]) | Herbicidal effects Sc (bulrush (Sc)) | Herbicidal effects Di (Digitaria ciliaris (Di)) | Herbicidal effects Ci (rice flatsedge (Ci) [17]) | Herbicidal effects Ec (barnyardgrass (Ec) [18]) | Herbicidal effects Ch [19] | also measured |
| --- | --- | --- | --- | --- | --- | --- | --- | --- | --- | --- | --- | --- | --- | --- | --- | --- | --- | --- | --- | --- | --- |
| Cn1c(C(F)(F)F)ccc(-c2cc(Br)c(Cl)cc2F)c1=O [1-138] | 2 | 5 | 5 | 5 | 5 | 5 | 5 | 4 | 5 | 5 | 5 | 5 | 1 | 5 | 5 | 5 | 5 | 5 | 5 | 5 | Herbicidal effects Ab (China jute (Ab) [12]): 4; Herbicidal effects Ch ([13]; dose 6.3 g ai/10a): 5; Herbicidal effects Po (pale smartweed (Po) [14]; dose 6.3 g ai/10a): 5; Herbicidal effects Se (green foxtail (Se) [15]; dose 6.3 g ai/10a): 5; Herbicidal effects Am (slender amaranth (Am) [16]; dose 6.3 g ai/10a): 5; Herbicidal effects Po (pale smartweed (Po) [20]): 5; Herbicidal effects Am (slender amaranth (Am) [21]): 5; Phytotoxicity Ze (corn (Ze)): 2; Herbicidal effects Ab (China jute (Ab) [22]): 4; Herbicidal effects Ch [23]: 5; Herbicidal effects Po (pale smartweed (Po) [24]): 5; Herbicidal effects Se (green foxtail (Se) [25]): 5; Herbicidal effects Am (slender amaranth (Am) [26]): 5; Phytotoxicity Tr (wheat (Tr); dose 6.3 g ai/10a): 1; Herbicidal effects Ab (China jute (Ab) [27]): 4; Herbicidal effects Ch [28]: 5; Herbicidal effects Po (pale smartweed (Po) [29]): 5; Herbicidal effects Se (green foxtail (Se) [30]): 5; Herbicidal effects Am (slender amaranth (Am) [31]): 5 |
| CCCOc1cc(-c2ccc(C(F)(F)F)n(C)c2=O)c(F)cc1Cl [1-154] | 1 | 5 | 5 | 5 | 5 | 5 | 5 | 5 | 5 | 5 | 5 | 5 | 0 | 5 | 5 | 5 | 5 | 5 | 5 | 5 | Herbicidal effects Ch ([13]; dose 1.6 g ai/10a): 5; Herbicidal effects Po (pale smartweed (Po) [14]; dose 1.6 g ai/10a): 5; Herbicidal effects Se (green foxtail (Se) [15]; dose 1.6 g ai/10a): 5; Herbicidal effects Am (slender amaranth (Am) [16]; dose 1.6 g ai/10a): 5; Herbicidal effects Po (pale smartweed (Po) [20]): 5; Herbicidal effects Am (slender amaranth (Am) [21]): 5; Phytotoxicity Ze (corn (Ze)): 1; Herbicidal effects Ab (China jute (Ab) [22]): 5; Herbicidal effects Ch [23]: 5; Herbicidal effects Po (pale smartweed (Po) [24]): 5; Herbicidal effects Se (green foxtail (Se) [25]): 5; Herbicidal effects Am (slender amaranth (Am) [26]): 5; Phytotoxicity Tr (wheat (Tr); dose 1.6 g ai/10a): 1; Herbicidal effects Ab (China jute (Ab) [27]): 5; Herbicidal effects Ch [28]: 5; Herbicidal effects Po (pale smartweed (Po) [29]): 5; Herbicidal effects Se (green foxtail (Se) [30]): 5; Herbicidal effects Am (slender amaranth (Am) [31]): 5 |
| CCC(C)Oc1cc(-c2ccc(C(F)(F)F)n(C)c2=O)c(F)cc1Cl (centres unmarked) [1-167] | 1 | 5 | 5 | 5 | 5 | 5 | 5 | 5 | 5 | 5 | 5 | 5 | 1 | 5 | 5 | 5 | 5 | 5 | 5 | 5 | Herbicidal effects Ab (China jute (Ab) [12]): 5; Herbicidal effects Ch ([13]; dose 6.3 g ai/10a): 5; Herbicidal effects Po (pale smartweed (Po) [14]; dose 6.3 g ai/10a): 5; Herbicidal effects Se (green foxtail (Se) [15]; dose 6.3 g ai/10a): 5; Herbicidal effects Am (slender amaranth (Am) [16]; dose 6.3 g ai/10a): 5; Herbicidal effects Po (pale smartweed (Po) [20]): 5; Herbicidal effects Am (slender amaranth (Am) [21]): 5; Phytotoxicity Ze (corn (Ze)): 0; Herbicidal effects Ab (China jute (Ab) [22]): 5; Herbicidal effects Ch [23]: 5; Herbicidal effects Po (pale smartweed (Po) [24]): 5; Herbicidal effects Se (green foxtail (Se) [25]): 5; Herbicidal effects Am (slender amaranth (Am) [26]): 5; Phytotoxicity Tr (wheat (Tr); dose 6.3 g ai/10a): 1; Herbicidal effects Ab (China jute (Ab) [27]): 5; Herbicidal effects Ch [28]: 5; Herbicidal effects Po (pale smartweed (Po) [29]): 5; Herbicidal effects Se (green foxtail (Se) [30]): 5; Herbicidal effects Am (slender amaranth (Am) [31]): 5 |
